Experimental data as given in US7172871B1, “Methods and compositions for modulating axonal outgrowth of central nervous system neurons” (Children's Medical Center Corporation, priority 2000, dated 2007).

System: N-kinase
Test: in-gel kinase method (histone HF-1 substrate, [32P]-ATP)
Format: biochemical
Conditions: in-gel kinase assay, [32P]-ATP plus Mn2+, with or without 6-TG present; bovine brain fractions
Experimental: During the purification process, kinase activity was monitored using an in-gel kinase method. In this method, a histone HF-1 substrate protein is polymerized into a 10% polyacrylamide gel before the samples to be analyzed are electrophoresed in the gel. Following completion of the electrophoresis, proteins are partially renatured with guanidium isothiocyanate and incubated in the presence [^32P]-ATP plus Mn^2+, with or without 6-TG present. (Activation by Mn^2+, but not by Mg^2+ or Ca^2+, is a distinctive property of N-kinase). The purification of the kinase was monitored by looking for a 6-TG-inhibitable radioactive band corresponding to the site where the kinase phosphorylates the HF-1 substrate in the gel.

Nc1nc2nc[nH]c2c(=S)[nH]1 [6-TG, 6-thioguanine]
inhibition of N-kinase HF-1-phosphorylating activity: inhibitable
